According to patent publication EP2236157A1 (PharmaNeuroBoost N.V., priority 2009, dated 2010):

Key:
[1] = target: other 5HT receptors; assay: receptor binding affinity (pKi)
[2] = target: T1, D4 receptor (Homo sapiens, UniProt P21917); assay: receptor binding affinity (pKi); settings: read-out: pKi value towards the D4 receptor (converted)
T1 sequence (P21917 1-419): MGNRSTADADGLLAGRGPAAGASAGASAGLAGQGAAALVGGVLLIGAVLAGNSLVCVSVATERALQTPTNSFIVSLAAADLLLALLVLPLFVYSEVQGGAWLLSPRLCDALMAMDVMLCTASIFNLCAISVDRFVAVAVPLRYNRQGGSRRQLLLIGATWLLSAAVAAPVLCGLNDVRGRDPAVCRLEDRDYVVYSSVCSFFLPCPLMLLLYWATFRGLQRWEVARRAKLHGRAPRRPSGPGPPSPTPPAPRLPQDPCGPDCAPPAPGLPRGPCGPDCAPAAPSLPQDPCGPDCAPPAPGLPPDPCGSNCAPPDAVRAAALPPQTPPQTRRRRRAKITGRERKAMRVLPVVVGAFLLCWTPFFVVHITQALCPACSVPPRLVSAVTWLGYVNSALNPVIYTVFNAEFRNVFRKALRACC

[3] = target: other dopamine receptors; assay: receptor binding affinity (pKi)
[4] = test system: adrenergic receptors α-1A, α-2A, α-2B, α-2C, β-1, β-2, and the histamine receptor H1; assay: receptor binding affinity (Table 1); settings: β-1, β-2 and histamine receptor H1
[5] = test system: patients with major depression; assay: semi-naturalistic open label study of combo pipamperone-citalopram in major depression (Example 2); format: in vivo
Description: This semi-naturalistic open label study investigated the efficacy and tolerability of the combo pipamperone - citalopram in the treatment of patients with major depression.
• Design: Semi-naturalistic i.e. inclusion of every 'natural' patient in an outpatient practice but without concomitant use of mood enhancing drugs, open label • Control: No • Phase: Phase IIa - preliminary Proof of Concept • Location: Belgium - Research Centre ANIMA, Alken • End Points : Assessment scale scores, Hamilton Depression Rating Scale 17 items, Reduction, Response, Remission • Medication: Exclusion of mood stabilisers, antipsychotics (typical and atypical) and other antidepressants
Patients have a major depressive disorder according to DSM-IV criteria, with or without a chronic course and a treatment refractory state towards another SSRI than citalopram. […]
Adverse events are assessed on: body as a whole, central and peripheral nervous system, gastrointestinal, musculoskeletal, psychiatric, respiratory, skin and appendages, vascular and urinary, taking into account discontinued treatment due to adverse events. Laboratory parameters, ECG, bodyweight and vital signs are not measured since this is a naturalistic study.

[6] = test system: patients with OCD; assay: semi-naturalistic open label study of combo pipamperone-citalopram in obsessive-compulsive disorder (Example 4); format: in vivo; settings: pipamperone 16-19 mg/day + citalopram 30-60 mg/day
Procedure: This semi-naturalistic open label study investigates the efficacy and tolerability of the combo pipamperone - citalopram in the treatment of patients with OCD.
Characteristics: patients have an obsessive-compulsive disorder according to DSM-IV criteria, with or without a chronic course and a treatment refractory state towards another SSRI than citalopram.
Treatment with the combo pipamperone-citalopram (n = 7). Treatment with fluvoxamine (controlled release) mean 271 mg/day (n = 253) is according to Hollander et al. (2003).
The intention-to-treat/last-observation-carried-forward analysis is evaluated relating to therapeutic efficacy according Y-BOCS total score, obsession and compulsion scores.

pKi value towards other 5HT receptors [1]: less than 8 | Ki [2]: ≤ 10 nM | pKi value towards other dopamine receptors [3]: less than 8 | affinity for other receptors [4]: low or absence of affinity
Structure (SMILES): NC(=O)C1(N2CCCCC2)CCN(CCCC(=O)c2ccc(F)cc2)CC1 [pipamperone, 1'-[3-(p-Fluorobenzoyl)propyl]-[1,4'-bipiperidine]-4'-carboxamide]
sedative effects ([5]; major depression study, pipamperone 16-19 mg/day): lacking | boosting effect on a SSRI (citalopram) ([5]; major depression, pipamperone 16-19 mg/day + citalopram 10-20 mg/day, PO, 8 weeks): apparent | sedative effects [6]: lacking
